In patent US8143393B2, “Substituted 4-amino-pyrrolotriazine derivatives useful for treating hyper-proliferative disorders and diseases associated with angiogenesis” (Bayer HealthCare LLC, priority 2005, dated 2012):

Legend:
H460 = test: Tumor cell proliferation (H460 proliferation assay); format: cell-based; details: Homo sapiens, NCI-H460, 72 h, Alamar Blue
Procedure: (§1) Human tumor cells (e.g., HCT116 or MDA-MB-231 cells), were seeded in a Costar 96-well plate at 3.0×10^3 cells/well and grown in 150 μl of RPMI complete media (Invitrogen Corporation, Grand Island, N.Y.) containing 10% fetal bovine serum (Hyclone, Logan, Utah) at 37° C. for 16 h in an incubator with 5% CO2. To each well, 50 μl of additional growth media containing 40 μM to 18 nM concentrations of compound with 0.4% DMSO was added. Cells were grown for another 72 h at 37° C. with 5% CO2. 20 μl of Alamar Blue (Trek Diagnostic Systems, Inc., Cleveland, Ohio) reagent was added to each well and incubated for 3 h at 37° C. Plates were read in a SpectraMax Gemini (Molecular Devices, CA) with 544 nm excitation and 590 nm emission wavelength. IC50 values were determined by linear regression analysis of log drug concentration versus percent inhibition.

FGFR-1 = target: T1, FGFR-1 (Homo sapiens, UniProt P11362); test: FGFR-1 TR-FRET biochemical assay; details: 0.6 uM ATP, 5 nM FGFR1-GST; bounds given in nM
T1 construct: GST; made in house
T1 sequence (P11362 22-822): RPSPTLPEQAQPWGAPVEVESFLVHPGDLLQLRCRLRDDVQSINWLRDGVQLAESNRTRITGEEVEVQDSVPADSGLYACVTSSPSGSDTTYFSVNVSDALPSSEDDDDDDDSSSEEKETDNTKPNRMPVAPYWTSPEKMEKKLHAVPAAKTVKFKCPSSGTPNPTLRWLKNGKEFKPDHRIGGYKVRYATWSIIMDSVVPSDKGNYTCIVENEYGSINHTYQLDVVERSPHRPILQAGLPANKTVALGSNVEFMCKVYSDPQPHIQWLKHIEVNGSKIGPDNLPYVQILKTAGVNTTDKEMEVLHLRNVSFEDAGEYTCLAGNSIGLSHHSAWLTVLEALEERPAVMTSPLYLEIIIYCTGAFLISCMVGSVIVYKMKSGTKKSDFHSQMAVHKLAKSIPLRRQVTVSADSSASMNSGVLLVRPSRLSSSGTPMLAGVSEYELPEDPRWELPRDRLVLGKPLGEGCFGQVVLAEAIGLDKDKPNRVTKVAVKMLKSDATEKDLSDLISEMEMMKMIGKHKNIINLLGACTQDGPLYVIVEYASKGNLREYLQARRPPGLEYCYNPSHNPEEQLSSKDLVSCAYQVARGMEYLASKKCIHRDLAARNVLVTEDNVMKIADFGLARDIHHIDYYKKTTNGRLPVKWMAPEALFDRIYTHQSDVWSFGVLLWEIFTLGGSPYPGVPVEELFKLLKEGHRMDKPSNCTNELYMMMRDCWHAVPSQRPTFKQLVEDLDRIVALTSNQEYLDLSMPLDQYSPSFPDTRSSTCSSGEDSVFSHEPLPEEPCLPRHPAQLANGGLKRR
How it was run: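 In this LANCE time-resolved FRET format, compounds at final 10 μM–0.128 nM (1% DMSO, 1:5 series) were preincubated before enzyme start. Reactions ran for one hour at room temperature with 0.6 uM ATP, 25 nM biotinylated poly GT and 5 nM GST-tagged FGFR1. Inhibition was calculated from the 665/615 nm ratio minus the ATP-free background.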

HCT116 cells = test: Tumor cell proliferation (HCT116 proliferation assay); format: cell-based; details: Homo sapiens, HCT-116, 72 h, Alamar Blue
Procedure: as §1

MDA-MB-231 cells = test: Tumor cell proliferation (MDA-MB-231 proliferation assay); format: cell-based; details: Homo sapiens, MDA-MB-231, 72 h, Alamar Blue
Procedure: as §1

[1] = system: histone 3 phosphorylation in colon carcinoma (HCT116); test: p-Histone3 assay; format: cell-based; details: Homo sapiens, HCT-116, 24 h, HCT116, 24 h treatment
Procedure: Compounds were assayed for the inhibition of histone 3 phosphorylation in colon carcinoma (HCT116). Briefly, 20,000 cells/well were seeded in a 96-well black-walled, poly-d-lysine plates in RPMI+10% FBS and incubated at 37° C. in 5% CO2 overnight. The following day, the cells were treated with compounds for 24 hours at 37° C. Following compound treatment; plates were centrifuged at 1000 rpm for 2 minutes and washed twice with 100 μl of cold sterile TBS. Cells were then fixed with cold 3.7% formaldehyde in TBS (4° C. for 1 hour) and then permeabolized with 0.1% Triton-X-100 in TBS (room temperature for 30 minutes). Plates were then washed with of 0.25% BSA-TBS and blocked with BSA solution for 1 hour at room temperature while shaking. The supernatant was removed and replaced with diluted primary antibody (anti-phospho-histone 3, serine 10, Cell Signaling) at 1:250 in 0.25% BSA-TBS and incubated overnight at 4° C. The plates were washed and treated with diluted secondary antibody (anti-rabbit Eu-labeled) at 1:10000 in 0.25% BSA-TBS (room temperature for 1 hour). The antibody solution was removed from each well and washed eight times. The wash buffer was replaced with 50 μl pre-warmed enhancement solution and mixed on the orbital shaker for 10 minutes. Fluorescence was detected with a Victor V Fluorescence Detector. The data are expressed as percent inhibition: % inhibition=100−((Signal with inhibitor−background)/(Signal without inhibitor−background))−100.

[2] = lower bound of the bin 'greater than 500 nM but less than 4 μM'
[3] = upper bound of the bin 'greater than 500 nM but less than 4 μM'
[4] = lower bound of the bin 'greater than 500 nM but less than 3 μM'
[5] = upper bound of the bin 'greater than 500 nM but less than 3 μM'
[6] = lower bound of the bin 'greater than 500 nM but less than 5 μM'

IC50 (H460; [2])	IC50 (H460; [3])	IC50 (FGFR-1)	IC50 (HCT116 cells; [2])	IC50 (HCT116 cells; [3])	IC50 (MDA-MB-231 cells; [4])	IC50 (MDA-MB-231 cells; [5])	IC50 ([1]; bounds given in μM)	IC50 [1, 6]	Compound
> 500 nM	< 4000 nM	< 10 nM	–	–	–	–	–	–	Nc1ncnn2c(CN3CCOCC3)cc(-c3ccc(NC(=O)Nc4cc(C(F)(F)F)ccc4F)c(F)c3)c12 [Example 1]
> 500 nM	< 4000 nM	< 10 nM	> 500 nM	< 4000 nM	> 500 nM	< 3000 nM	–	–	Nc1ncnn2c(CN3CCOCC3)cc(-c3ccc(NC(=O)Nc4ccc(F)c(C(F)(F)F)c4)cc3)c12 [Example 6, N-{4-[4-amino-7-(morpholin-4-ylmethyl)-pyrrolo[2,1-f][1,2,4]triazin-5-yl]phenyl}-N′-[4-fluoro-3-(trifluoromethyl)phenyl]urea]
> 500 nM	< 4000 nM	< 10 nM	> 500 nM	< 4000 nM	> 500 nM	< 3000 nM	–	–	Nc1ncnn2c(CN3CCOCC3)cc(-c3ccc(NC(=O)Nc4cc(C(F)(F)F)ccn4)cc3)c12 [Example 3, N-{4-[4-amino-7-(morpholin-4-ylmethyl)pyrrolo[2,1-f][1,2,4]triazin-5-yl]phenyl}-N′-[4-(trifluoromethyl)pyridin-2-yl]urea]
> 500 nM	< 4000 nM	–	> 500 nM	< 4000 nM	> 500 nM	< 3000 nM	–	–	Nc1ncnn2c(CN3CCOCC3)cc(-c3ccc(NC(=O)Nc4cccc(C(F)(F)F)c4)cc3)c12 [Example 5, N-{4-[4-amino-7-(morpholin-4-ylmethyl)-pyrrolo[2,1-f][1,2,4]triazin-5-yl]phenyl}-N′-[3-(trifluoromethyl)phenyl]urea]
> 500 nM	< 4000 nM	< 10 nM	–	–	–	–	–	–	Nc1ncnn2c(CN3CCOCC3)cc(-c3ccc(NC(=O)Nc4cc(C(F)(F)F)ccn4)c(F)c3)c12 [Example 8, N-{4-[4-amino-7-(morpholin-4-ylmethyl)pyrrolo[2,1-f][1,2,4]triazin-5-yl]-2-fluorophenyl}-N′-[4-(trifluoromethyl)pyridin-2-yl]urea]
–	–	< 10 nM	–	–	–	–	< 5 µM	> 0.5 µM	Nc1ncnn2c(CN3CCOCC3)cc(-c3ccc(NC(=O)Nc4cccc(C(F)(F)F)c4)c(F)c3)c12 [Example 10, N-{4-[4-amino-7-(morpholin-4-ylmethyl)pyrrolo[2,1-f][1,2,4]triazin-5-yl]-2-fluorophenyl}-N′-[3-(trifluoromethyl)phenyl]urea]
–	–	< 10 nM	> 500 nM	< 4000 nM	> 500 nM	< 3000 nM	< 5 µM	> 0.5 µM	Nc1ncnn2c(CN3CCOCC3)cc(-c3ccc(NC(=O)Nc4cc(C(F)(F)F)ccc4F)cc3)c12 [Example 4, N-{4-[4-amino-7-(morpholin-4-ylmethyl)-pyrrolo[2,1-f][1,2,4]triazin-5-yl]phenyl}-N′-[2-fluoro-5-(trifluoromethyl)phenyl]urea]
–	–	< 10 nM	–	–	–	–	< 5 µM	> 0.5 µM	Nc1ncnn2c(CN3CCOCC3)cc(-c3ccc(NC(=O)Nc4cc(C(F)(F)F)ccc4F)cc3F)c12 [Example 16, N-{4-[4-amino-7-(morpholin-4-ylmethyl)pyrrolo[2,1-f][1,2,4]triazin-5-yl]-3-fluorophenyl}-N′-[2-fluoro-5-(trifluoromethyl)phenyl]urea]
